Read-outs that look alike come from different tables or passages of the source. Where a SMILES comes first, the peptide text is derived from it. Side-chain parts run from the residue outwards. [ ]: non-standard residue; d: D form. The star is where a group is joined. αMePhe(2-F) = C[C@](N)(Cc1ccccc1F)C(=O)O; C14 diacid = O=C(O)CCCCCCCCCCCCC(=O)*; αMeY = C[C@](N)(Cc1ccc(O)cc1)C(=O)O; αMeL = CC(C)C[C@](C)(N)C(=O)O; Orn = NCCC[C@H](N)C(=O)O; AEEA = NCCOCCOCC(=O)O; Aib = CC(C)(N)C(=O)O
Legend:
Type in all cases: cell-based
hGCGR = target: T1, hGCGR (Homo sapiens, UniProt P47871); test: Functional cAMP formation (HTRF) in HEK-293 clonal cells expressing hGCGR, 0.1% bovine casein, without or with 1.0% human serum albumin; conditions: 37° C., geometric mean, read-out: hGCGR EC50, nM (SEM, n)
T1 construct: expressed in transfected cells
In short: (§1)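 Readings of the HTRF 665/620 nm ratio, which falls as cAMP rises, were converted to nM cAMP using a standard curve after 30 min peptide exposure at 37° C.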

hGLP-1R = hGLP-1R (Homo sapiens, UniProt P43220); test: Functional cAMP formation (HTRF) in HEK-293 clonal cells expressing hGLP-1R, 0.1% bovine casein, without or with 1.0% human serum albumin; set-up: expressed in transfected cells; conditions: 37° C.; for EC50: geometric mean, read-out: hGLP-1R EC50, nM (SEM, n); for Emax: percent of maximal response to GLP-1(7-36)NH2, read-out: hGLP-1R Emax, % ± SEM
In short: as §1

hGIPR = target: T2, hGIPR (Homo sapiens, UniProt P48546); test: Functional cAMP formation (HTRF) in HEK-293 clonal cells expressing hGIPR, 0.1% bovine casein, without or with 1.0% human serum albumin; conditions: 37° C.; for Emax: percent of maximal response to GIP(1-42)NH2, read-out: hGIPR Emax, % ± SEM; for EC50: geometric mean, read-out: hGIPR EC50, nM (SEM, n)
T2 construct: expressed in transfected cells
T2 sequence (P48546 22-466): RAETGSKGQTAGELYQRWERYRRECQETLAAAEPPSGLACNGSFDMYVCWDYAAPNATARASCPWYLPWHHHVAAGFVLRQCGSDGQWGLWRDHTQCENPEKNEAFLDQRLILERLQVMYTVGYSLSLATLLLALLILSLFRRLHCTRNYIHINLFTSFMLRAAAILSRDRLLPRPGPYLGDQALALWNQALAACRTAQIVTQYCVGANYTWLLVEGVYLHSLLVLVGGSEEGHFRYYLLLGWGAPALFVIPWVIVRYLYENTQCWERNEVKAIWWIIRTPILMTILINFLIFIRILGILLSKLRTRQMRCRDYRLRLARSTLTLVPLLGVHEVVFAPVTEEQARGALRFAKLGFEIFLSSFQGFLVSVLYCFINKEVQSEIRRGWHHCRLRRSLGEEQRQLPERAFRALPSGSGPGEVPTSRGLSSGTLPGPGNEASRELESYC
In short: as §1

[1] = 0.1% bovine casein and 1.0% human serum albumin
[2] = cAMP, 0.1% bovine casein (no human serum albumin)
[3] = HEK293, 0.1% bovine casein and 1.0% human serum albumin
[4] = HEK293, cAMP, 0.1% bovine casein, arithmetic mean

hGLP-1R, sequence (P43220 24-463): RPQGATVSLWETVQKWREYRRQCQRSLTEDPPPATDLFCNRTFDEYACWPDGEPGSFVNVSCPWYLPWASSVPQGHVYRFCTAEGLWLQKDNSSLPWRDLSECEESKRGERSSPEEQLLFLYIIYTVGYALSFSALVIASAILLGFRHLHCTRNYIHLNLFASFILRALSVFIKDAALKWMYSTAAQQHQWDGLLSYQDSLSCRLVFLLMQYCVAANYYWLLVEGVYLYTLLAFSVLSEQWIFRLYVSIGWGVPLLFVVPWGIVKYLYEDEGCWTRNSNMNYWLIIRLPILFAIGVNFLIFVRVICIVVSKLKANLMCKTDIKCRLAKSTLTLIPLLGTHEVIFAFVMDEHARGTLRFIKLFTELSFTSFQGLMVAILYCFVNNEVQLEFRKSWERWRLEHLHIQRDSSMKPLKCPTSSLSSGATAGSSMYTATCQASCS
T1 sequence (P47871 26-477): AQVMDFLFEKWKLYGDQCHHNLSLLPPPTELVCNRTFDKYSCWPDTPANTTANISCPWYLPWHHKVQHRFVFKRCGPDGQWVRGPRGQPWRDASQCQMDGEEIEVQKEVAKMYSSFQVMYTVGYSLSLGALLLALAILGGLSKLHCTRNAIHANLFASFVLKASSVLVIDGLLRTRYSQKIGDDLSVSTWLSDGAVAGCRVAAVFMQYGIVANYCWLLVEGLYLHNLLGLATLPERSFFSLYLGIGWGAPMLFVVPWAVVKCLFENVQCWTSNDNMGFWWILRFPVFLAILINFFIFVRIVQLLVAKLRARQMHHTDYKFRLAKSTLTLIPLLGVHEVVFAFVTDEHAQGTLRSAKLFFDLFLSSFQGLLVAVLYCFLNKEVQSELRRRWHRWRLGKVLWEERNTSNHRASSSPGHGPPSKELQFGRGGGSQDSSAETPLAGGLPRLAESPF

Row | Structure (SMILES) | EC50 (hGCGR; [1]) | EC50 (hGCGR; [2]) | EC50 (hGLP-1R; [2]) | Emax (hGIPR; [3]) | EC50 (hGIPR; [2]) | Emax (hGLP-1R; [4]) | Emax (hGLP-1R; [3]) | EC50 (hGIPR; [1]) | Emax (hGIPR; [4]) | EC50 (hGLP-1R; [1])
1 | CC[C@H](C)[C@H](NC(=O)[C@H](CC(C)C)NC(=O)[C@](C)(Cc1ccc(O)cc1)NC(=O)[C@@H](CCC(=O)O)NC(=O)[C@@H](NC(=O)[C@H](Cc1ccccc1)NC(=O)[C@H](CCC(=O)O)NC(=O)C(C)(C)NC(=O)[C@H](CCC(N)=O)NC(=O)[C@H](C)NC(=O)[C@H](CCCCNC(=O)COCCOCCNC(=O)COCCOCCNC(=O)CCCCCCCCCCCCC(=O)O)NC(=O)[C@H](CCCN)NC(=O)[C@H](CC(=O)O)NC(=O)[C@H](CC(C)C)NC(=O)[C@](C)(CC(C)C)NC(=O)[C@@H](NC(=O)[C@H](CO)NC(=O)[C@H](Cc1ccc(OC)cc1)NC(=O)[C@H](CC(=O)O)NC(=O)[C@H](CO)NC(=O)[C@@H](NC(=O)[C@](C)(Cc1ccccc1F)NC(=O)[C@@H](NC(=O)CNC(=O)[C@H](CCC(=O)O)NC(=O)C(C)(C)NC(=O)[C@@H](N)Cc1ccc(O)cc1)[C@@H](C)O)[C@@H](C)O)[C@@H](C)CC)[C@@H](C)CC)C(=O)N[C@@H](CCC(=O)O)C(=O)NCC(=O)NCC(=O)N1CCC[C@H]1C(=O)N[C@@H](CO)C(=O)N[C@@H](CO)C(=O)NCC(=O)N[C@@H](C)C(=O)N1CCC[C@H]1C(=O)N1CCC[C@H]1C(=O)N1CCC[C@H]1C(=O)N[C@@H](CO)C(=O)N[C@@H](CCCCNC(=O)COCCOCCNC(=O)COCCOCCNC(=O)CCCCCCCCCCCCC(=O)O)C(N)=O [Example 267] (H-Y[Aib]EGT[αMePhe(2-F)]TSDY(Me)SI[αMeL]LD[Orn]K([AEEA-AEEA-C14 diacid])AQ[Aib]EFI[dE][αMeY]LIEGGPSSGAPPPSK([AEEA-AEEA-C14 diacid])-NH2) | > 9950 nM | > 9950 nM | 0.271 nM | 88.1% | 0.0162 nM | – | – | – | – | –
2 | CC[C@H](C)[C@H](NC(=O)[C@H](CCCN)NC(=O)[C@H](CC(=O)O)NC(=O)[C@H](CC(C)C)NC(=O)[C@](C)(CC(C)C)NC(=O)[C@@H](NC(=O)[C@H](CO)NC(=O)[C@H](Cc1ccc(OC)cc1)NC(=O)[C@H](CC(=O)O)NC(=O)[C@H](CO)NC(=O)[C@@H](NC(=O)[C@](C)(Cc1ccccc1F)NC(=O)[C@@H](NC(=O)CNC(=O)[C@H](CCC(=O)O)NC(=O)C(C)(C)NC(=O)[C@@H](N)Cc1ccc(O)cc1)[C@@H](C)O)[C@@H](C)O)[C@@H](C)CC)C(=O)N[C@@H](C)C(=O)N[C@@H](CCC(N)=O)C(=O)NC(C)(C)C(=O)N[C@@H](CCCCNC(=O)COCCOCCNC(=O)COCCOCCNC(=O)CCCCCCCCCCCCC(=O)O)C(=O)N[C@@H](Cc1ccccc1)C(=O)N[C@H](C(=O)N[C@H](CCC(=O)O)C(=O)N[C@@](C)(Cc1ccc(O)cc1)C(=O)N[C@@H](CC(C)C)C(=O)N[C@H](C(=O)N[C@@H](CCC(=O)O)C(=O)NCC(=O)NCC(=O)N1CCC[C@H]1C(=O)N[C@@H](CO)C(=O)N[C@@H](CO)C(=O)NCC(=O)N[C@@H](C)C(=O)N1CCC[C@H]1C(=O)N1CCC[C@H]1C(=O)N1CCC[C@H]1C(=O)N[C@@H](CO)C(=O)N[C@@H](CCCCNC(=O)COCCOCCNC(=O)COCCOCCNC(=O)CCCCCCCCCCCCC(=O)O)C(N)=O)[C@@H](C)CC)[C@@H](C)CC [Example 268] (H-Y[Aib]EGT[αMePhe(2-F)]TSDY(Me)SI[αMeL]LD[Orn]IAQ[Aib]K([AEEA-AEEA-C14 diacid])FI[dE][αMeY]LIEGGPSSGAPPPSK([AEEA-AEEA-C14 diacid])-NH2) | > 9950 nM | > 9950 nM | – | 92.3% | 0.0265 nM | 112% | – | – | – | –
3 | CCCC[C@H](NC(=O)[C@H](CC(=O)O)NC(=O)[C@H](CO)NC(=O)[C@@H](NC(=O)[C@](C)(Cc1ccccc1F)NC(=O)[C@@H](NC(=O)CNC(=O)[C@H](CCC(=O)O)NC(=O)C(C)(C)NC(=O)[C@@H](N)Cc1ccc(O)cc1)[C@@H](C)O)[C@@H](C)O)C(=O)N[C@@H](CO)C(=O)N[C@H](C(=O)N[C@@](C)(CC(C)C)C(=O)N[C@@H](CC(C)C)C(=O)N[C@@H](CC(=O)O)C(=O)N[C@@H](CCCN)C(=O)N[C@H](C(=O)N[C@@H](C)C(=O)N[C@@H](CCC(N)=O)C(=O)NC(C)(C)C(=O)N[C@@H](CCC(=O)O)C(=O)N[C@@H](Cc1ccccc1)C(=O)N[C@H](C(=O)N[C@@H](CCCCNC(=O)COCCOCCNC(=O)COCCOCCNC(=O)CC[C@H](NC(=O)CCCCCCCCCCCCC(=O)O)C(=O)O)C(=O)N[C@@](C)(Cc1ccc(O)cc1)C(=O)N[C@@H](CC(C)C)C(=O)N[C@H](C(=O)N[C@@H](CCCCNC(=O)COCCOCCNC(=O)COCCOCCNC(=O)CC[C@H](NC(=O)CCCCCCCCCCCCC(=O)O)C(=O)O)C(=O)NCC(=O)NCC(=O)N1CCC[C@H]1C(=O)N[C@@H](CO)C(=O)N[C@@H](CO)C(=O)NCC(=O)N[C@@H](C)C(=O)N1CCC[C@H]1C(=O)N1CCC[C@H]1C(=O)N1CCC[C@H]1C(=O)N[C@@H](CO)C(N)=O)[C@@H](C)CC)[C@@H](C)CC)[C@@H](C)CC)[C@@H](C)CC [Example 269] | > 9950 nM | > 9950 nM | 1.72 nM | 87.3% | – | 96.5% | 105% | 2.65 nM | 95.3% | –
4 | CC[C@H](C)[C@H](NC(=O)[C@H](CCCN)NC(=O)[C@H](CC(=O)O)NC(=O)[C@H](CC(C)C)NC(=O)[C@](C)(CC(C)C)NC(=O)[C@@H](NC(=O)[C@H](CO)NC(=O)[C@H](CCc1ccc(O)cc1)NC(=O)[C@H](CC(=O)O)NC(=O)[C@H](CO)NC(=O)[C@@H](NC(=O)[C@](C)(Cc1ccccc1F)NC(=O)[C@@H](NC(=O)CNC(=O)[C@H](CCC(=O)O)NC(=O)C(C)(C)NC(=O)[C@@H](N)Cc1ccc(O)cc1)[C@@H](C)O)[C@@H](C)O)[C@@H](C)CC)C(=O)N[C@@H](C)C(=O)N[C@@H](CCC(N)=O)C(=O)NC(C)(C)C(=O)N[C@@H](CCC(=O)O)C(=O)N[C@@H](Cc1ccccc1)C(=O)N[C@H](C(=O)N[C@@H](CCCCNC(=O)COCCOCCNC(=O)COCCOCCNC(=O)CC[C@H](NC(=O)CCCCCCCCCCCCC(=O)O)C(=O)O)C(=O)N[C@@](C)(Cc1ccc(O)cc1)C(=O)N[C@@H](CC(C)C)C(=O)N[C@H](C(=O)N[C@@H](CCCCNC(=O)COCCOCCNC(=O)COCCOCCNC(=O)CC[C@H](NC(=O)CCCCCCCCCCCCC(=O)O)C(=O)O)C(=O)NCC(=O)NCC(=O)N1CCC[C@H]1C(=O)N[C@@H](CO)C(=O)N[C@@H](CO)C(=O)NCC(=O)N[C@@H](C)C(=O)N1CCC[C@H]1C(=O)N1CCC[C@H]1C(=O)N1CCC[C@H]1C(=O)N[C@@H](CO)C(N)=O)[C@@H](C)CC)[C@@H](C)CC [Example 270] | > 9950 nM | > 9950 nM | – | 80.9% | – | 97% | 111% | – | 91.7% | 32.6 nM
5 | CCCC[C@H](NC(=O)[C@H](CC(=O)O)NC(=O)[C@H](CO)NC(=O)[C@@H](NC(=O)[C@](C)(Cc1ccccc1F)NC(=O)[C@@H](NC(=O)CNC(=O)[C@H](CCC(=O)O)NC(=O)C(C)(C)NC(=O)[C@@H](N)Cc1ccc(O)cc1)[C@@H](C)O)[C@@H](C)O)C(=O)N[C@@H](CO)C(=O)N[C@H](C(=O)N[C@@](C)(CC(C)C)C(=O)N[C@@H](CC(C)C)C(=O)N[C@@H](CC(=O)O)C(=O)N[C@@H](CCCN)C(=O)N[C@@H](CCCCNC(=O)COCCOCCNC(=O)COCCOCCNC(=O)CCCCCCCCCCCCC(=O)O)C(=O)N[C@@H](C)C(=O)N[C@@H](CCC(N)=O)C(=O)NC(C)(C)C(=O)N[C@@H](CCCCNC(=O)COCCOCCNC(=O)COCCOCCNC(=O)CCCCCCCCCCCCC(=O)O)C(=O)N[C@@H](Cc1ccccc1)C(=O)N[C@H](C(=O)N[C@H](CCC(=O)O)C(=O)N[C@@](C)(Cc1ccc(O)cc1)C(=O)N[C@@H](CC(C)C)C(=O)N[C@H](C(=O)N[C@@H](CCC(=O)O)C(=O)NCC(=O)NCC(=O)N1CCC[C@H]1C(=O)N[C@@H](CO)C(=O)N[C@@H](CO)C(=O)NCC(=O)N[C@@H](C)C(=O)N1CCC[C@H]1C(=O)N1CCC[C@H]1C(=O)N1CCC[C@H]1C(=O)N[C@@H](CO)C(N)=O)[C@@H](C)CC)[C@@H](C)CC)[C@@H](C)CC [Example 271] | > 9950 nM | > 9950 nM | – | 97.3% | 0.0186 nM | – | 122% | – | – | 10.2 nM

Reference: patent publication US20230265151A1, “GIP/GLP1 CO-AGONIST COMPOUNDS” (priority 2020, published 2023)
